Reference: patent publication US20250163119A1, “COMPOUNDS FOR THE TREATMENT OF DIABETES OR OBESITY” (Eli Lilly and Company, priority 2023, published 2025)
*1 amine or outer side, *2 acyl side, *3 side chain or, on linkers, in order; H or OH if unused. Where a SMILES comes first, the peptide text is derived from it. Side-chain parts run from the residue outwards. [ ]: non-standard residue; d: D form. The star is where a group is joined. C20 diacid = O=C(O)CCCCCCCCCCCCCCCCCCC(=O)*; γGlu = O=C(O)[C@H](CCC(=O)[*:2])N[*:1]; εLys = N[C@@H](CCCCN[*:1])C(=O)[*:2]; NMeI = CC[C@H](C)[C@H](NC)C(=O)O; pGlu = O=C1CC[C@@H](C(=O)O)N1; αMeL = CC(C)C[C@](C)(N)C(=O)O; AEEA = NCCOCCOCC(=O)O; Aib = CC(C)(N)C(=O)O

Key:
human CRHR2 = biological target: T1, human CRHR2 (Homo sapiens, UniProt Q13324); assay: Human CRHR2 cAMP assay (HTRF) in HEK293 cells stably expressing human CRHR2; assay type: cell-based; conditions: HEK293 cells overexpressing human CRHR2; relative EC50, maximum 10 nM human UCN2; mean ± SE; read-out: hCRHR2 cAMP EC50 (pM, ± SE)
T1 construct: expressed in transfected cells
T1 sequence (Q13324 1-438 isoform Q13324-2): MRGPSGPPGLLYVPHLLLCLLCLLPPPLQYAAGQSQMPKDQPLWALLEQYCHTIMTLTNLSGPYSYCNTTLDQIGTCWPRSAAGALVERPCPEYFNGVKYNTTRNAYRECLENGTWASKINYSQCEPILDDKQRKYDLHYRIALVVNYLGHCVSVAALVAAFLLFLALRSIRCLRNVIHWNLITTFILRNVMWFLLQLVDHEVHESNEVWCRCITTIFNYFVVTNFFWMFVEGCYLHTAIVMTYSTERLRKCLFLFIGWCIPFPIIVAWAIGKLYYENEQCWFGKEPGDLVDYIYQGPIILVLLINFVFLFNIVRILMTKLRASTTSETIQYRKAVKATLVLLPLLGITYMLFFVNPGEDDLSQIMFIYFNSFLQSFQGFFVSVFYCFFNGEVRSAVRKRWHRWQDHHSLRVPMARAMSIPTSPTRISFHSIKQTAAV
Outline: (§1)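 Stably expressing HEK293 clones received peptide concentration series in phosphodiesterase-inhibited buffer (0.25 mM IBMX, pH 7.4). After receptor-specific incubation (CRHR1 1 h at 37° C; CRHR2 30 min at room temperature), cells were lysed with HTRF cAMP reagents for 60 min and the 665/620 nm ratio recorded.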

human CRHR1 = biological target: T2, human CRHR1 (Homo sapiens, UniProt P34998); assay: Human CRHR1 cAMP assay (HTRF) in HEK293 cells stably expressing human CRHR1; assay type: cell-based; conditions: HEK293 cells overexpressing human CRHR1; relative EC50, maximum 66 nM human UCN1; mean ± SE; read-out: hCRHR1 cAMP EC50 (pM, ± SE)
T2 construct: expressed in transfected cells
T2 sequence (P34998 24-415): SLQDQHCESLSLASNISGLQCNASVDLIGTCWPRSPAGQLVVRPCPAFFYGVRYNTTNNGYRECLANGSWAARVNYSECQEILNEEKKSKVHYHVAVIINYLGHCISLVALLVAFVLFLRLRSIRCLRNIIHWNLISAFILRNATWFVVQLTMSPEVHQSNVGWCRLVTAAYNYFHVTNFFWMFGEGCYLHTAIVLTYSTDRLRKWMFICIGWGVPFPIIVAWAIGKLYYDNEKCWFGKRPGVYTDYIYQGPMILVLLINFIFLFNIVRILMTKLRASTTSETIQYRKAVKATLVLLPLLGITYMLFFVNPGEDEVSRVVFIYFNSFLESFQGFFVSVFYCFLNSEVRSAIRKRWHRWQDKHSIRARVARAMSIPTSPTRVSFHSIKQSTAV
Outline: as §1

EC50 (human CRHR2)	EC50 (human CRHR1)	Compound
29.8 ± 2.5 pM	> 1e+07 pM	CC[C@H](C)[C@H](NC)C(=O)N[C@H](C(=O)N[C@@H](CC(C)C)C(=O)N[C@@H](CO)C(=O)N[C@@H](CC(C)C)C(=O)N[C@@H](CC(=O)O)C(=O)N[C@H](C(=O)N1CCC[C@H]1C(=O)N[C@H](C(=O)NCC(=O)N[C@@H](CC(C)C)C(=O)N[C@@H](CC(C)C)C(=O)N[C@@H](CCC(N)=O)C(=O)N[C@H](C(=O)N[C@@H](CC(C)C)C(=O)N[C@@H](CC(C)C)C(=O)N[C@@H](CCC(=O)O)C(=O)N[C@@H](CCC(N)=O)C(=O)N[C@@H](CCC(=O)O)C(=O)N[C@@H](CCCCN)C(=O)N[C@@H](CCC(N)=O)C(=O)N[C@@H](CCC(=O)O)C(=O)N[C@@H](CCCCN)C(=O)N[C@@H](CCC(=O)O)C(=O)N[C@@H](CCCCN)C(=O)N[C@@H](CCC(N)=O)C(=O)N[C@@H](CCC(N)=O)C(=O)N[C@@H](C)C(=O)N[C@@H](CCCCNC(=O)COCCOCCNC(=O)COCCOCCNC(=O)CC[C@H](NC(=O)CC[C@H](NC(=O)CCCCCCCCCCCCCCCCCCC(=O)O)C(=O)O)C(=O)O)C(=O)N[C@H](C(=O)N[C@@H](CC(N)=O)C(=O)N[C@@H](C)C(=O)N[C@@H](CCC(N)=O)C(=O)N[C@H](C(=O)N[C@@H](CC(C)C)C(=O)N[C@@H](C)C(=O)N[C@@H](CCC(N)=O)C(=O)N[C@H](C(N)=O)C(C)C)[C@@H](C)CC)[C@@H](C)O)[C@@H](C)CC)[C@@H](C)CC)C(C)C)C(C)C [SEQ ID NO: 54] (H-[NMeI]VLSLDVPIGLLQILLEQEKQEKEKQQAK([AEEA-AEEA-γGlu-γGlu-C20 diacid])TNAQILAQV-NH2)
11.3 ± 3 pM	> 1e+07 pM	[pGlu]GSPSGIVTS[αMeL]DVPT[Aib][αMeL]LQKILEQERAEKARQQAK([γGlu-AEEA-εLys-C20 diacid])EAAEILAQV-NH2 [SEQ ID NO: 22, Pyr-GSPSGIVTS αMeL DVPT Aib αMeL LQKILEQERAEKARQQAK(γE-(2-[2-(2-Amino-ethoxy)-ethoxy]-acetyl)-ϵK-CO-(CH2)18-CO2H)EAAEILAQV-NH2]
